This experiment concerns the target T1, POsterior Segregation (Caenorhabditis elegans, UniProt G5EF15).
T1 sequence (G5EF15 whole entry): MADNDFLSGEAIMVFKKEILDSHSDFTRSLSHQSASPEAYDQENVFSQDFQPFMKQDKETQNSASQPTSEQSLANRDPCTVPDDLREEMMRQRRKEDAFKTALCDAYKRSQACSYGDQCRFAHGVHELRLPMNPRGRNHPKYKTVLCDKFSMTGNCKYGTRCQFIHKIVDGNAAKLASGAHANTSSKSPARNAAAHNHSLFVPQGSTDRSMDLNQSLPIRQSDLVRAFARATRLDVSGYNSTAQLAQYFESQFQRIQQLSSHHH
In words: disruptors of C. elegans POS-1 RNA interaction – biochemical, fluorescence polarization, dose response (AID 1964). For orientation: Polarisation of emitted light reports the rotation of a fluorescent probe.

Each structure is given as a SMILES string.

One may read the EC50 as the concentration that produces a half-maximal response. A lower EC50 goes with a more potent agent.

`CC(=N)C(C#N)C(=O)CSc1ncnc2ccccc12` (stereo unspecified) [(E)-3-amino-2-(2-quinazolin-4-ylsulfanylacetyl)but-2-enenitrile]: the half-maximal effective concentration (EC50) was over 300 µM.

For `O=CC(C=Nc1ccccn1)c1nc2cc(Cl)ccc2o1` (stereo unspecified) [(Z)-2-(5-chloranyl-1,3-benzoxazol-2-yl)-3-(pyridin-2-ylamino)prop-2-enal], the 50% effective concentration (EC50) stood at 67.7 µM. In other words, the double-digit micromolar range.

Compound `COc1ccc(CCN2C(=O)NC(=O)C(=CNNC(=O)c3ccncc3)C2=O)cc1OC` [Isonicotinic acid N'-[1-[2-(3,4-dimethoxy-phenyl)-ethyl]-2,4,6-trioxo-tetrahydro-pyrimidin-(5E)-ylidenemethyl]-hydrazide] showed a half-maximal effective concentration (EC50) of 150 µM.

`CCCCN1C(=O)NC(=O)C(=CNNC(=O)c2ccncc2)C1=O` [Isonicotinic acid N'-[1-butyl-2,4,6-trioxo-tetrahydro-pyrimidin-(5E)-ylidenemethyl]-hydrazide] registered a concentration for a half-maximal effect (EC50) of over 300 µM.

On to `COc1cc(C2C3CN(C)CCC3=C(C#N)C(=N)C2(C#N)C#N)ccc1OC(C)C` (stereo unspecified) [MLS000034945], for which the concentration for a half-maximal effect (EC50) is over 300 µM.

`CC(=O)N1CCN(c2ccc(NC=C3C(=O)NC(=O)N(Cc4ccccc4)C3=O)cc2)CC1` [MLS000041641]: the EC50 was over 300 µM.

Compound `CC(=O)Nc1ccc(N=CCC(=O)c2ccc(C)o2)cc1` [MLS000089004] registered an EC50 of over 300 µM.

Take `COc1ccc(CCN2C(=O)NC(=O)C(=CNc3ccc(NC(C)=O)cc3)C2=O)cc1OC` [MLS000332913]: the concentration for a half-maximal effect (EC50) was over 300 µM.

`O=C1CCCC2=Nc3cc(Cl)ccc3SC12` (stereo unspecified) [MLS000333002] came in with a concentration for a half-maximal effect (EC50) of 18.4 µM. This counts as double-digit micromolar.

With `CCCCCCN1C(=O)C(=CNc2ccccc2N2CCOCC2)C(=O)NC1=S` [MLS000333666], the concentration giving a half-maximal response (EC50) was over 300 µM.

For the compound `Cc1ccc(CN=Nc2ncnc3nc[nH]c23)cc1` [MLS000419179], the EC50 was over 300 µM.

Take `CCOc1ccc(N=C(C(=C(Cl)C(Cl)Cl)[N+](=O)[O-])n2cncn2)cc1` [MLS000519210]: the midpoint of the response, the EC50, lay at 46.9 µM.

In the case of `COc1cc(CN=Nc2ccc([N+](=O)[O-])cc2)ccc1OCC(=O)Nc1ccc(C)c(C)c1` [MLS000537060], the EC50 is over 300 µM.

In the case of `[H]/N=C1/OC23CCCCC2C(C#N)(C#N)C1(C#N)C(c1ccc(OC)cc1)O3` (stereo unspecified) [MLS000554241], the response was half-maximal at 12.4 µM (EC50).

Take `Nc1c(-c2nc3ccccc3[nH]2)c(O)cn1-c1ccc(CC(=O)O)cc1` [MLS000565528]: the concentration giving a half-maximal response (EC50) amounted to 5.25 µM.

Consider `Cc1nnc(=O)[nH]c1N=NCC1C=CC(=O)C([N+](=O)[O-])=C1` (stereo unspecified) [MLS000585487], for which the EC50 is 169 µM.

Take `O=C(N[N-][CH+]c1cc([N+](=O)[O-])ccc1N1CCCC1)c1ccccn1` [MLS000684285]: the 50% effective concentration (EC50) was 149 µM.

`Cc1cc(=O)n(-c2ccc(C(=O)O)c(N)c2)[nH]1` [MLS000690508] had a concentration giving a half-maximal response (EC50) of 85.5 µM.

`CC1=C(C#N)C(=O)N(C)C(=O)C1=CNNc1ccc(C)c(C)c1` [MLS000698328] had a 50% effective concentration (EC50) of over 300 µM.

With `CC1=C(C#N)C(=O)N(C)C(=O)C1=CNNc1ccc(F)cc1` [MLS000702698], the EC50 was over 300 µM.

For the compound `O=C(c1ccccc1)[C@@H]1c2c(c(O)n(-c3ccc(F)cc3)c2O)C2CCCN21` (stereo partly specified) [MLS000769629], the EC50 was 37.9 µM.

On to `O=C(O)c1ccccc1N=NCc1c(Sc2nnnn2-c2ccccc2)nc2ccccn2c1=O` [MLS000775267], for which the concentration for a half-maximal effect (EC50) is over 300 µM.

Regarding `CCCCOC(=O)c1ccc(NN=C2C(=O)NC(=O)C(C#N)=C2C)cc1` [MLS000778379], the EC50 was over 300 µM.

`COc1cc(C2C3=C(CC(C)(C)CC3=O)OC(=N)C2C#N)ccc1OCCN1CCOCC1` (stereo unspecified) [MLS000779948] had a concentration for a half-maximal effect (EC50) of over 300 µM.

On to `C=c1c(C(=O)OC)c(O)c(=Cc2ccco2)n1-c1ccccc1` [MLS000780287], for which the EC50 came to 99 µM.

On to `COc1ccc(C(C)N=Nc2nc3ccccc3nc2C)cc1OC` (stereo unspecified) [MLS001029936], for which a half-maximal response (EC50) required 5.07 µM.

In turn, `CC1(C)c2[nH]c3ccccc3c2Cc2c(O)n(-c3ccc(F)cc3F)c(=O)n21` [MLS001065879] gave an EC50 of over 300 µM.

`O=C(/C=C/c1ccco1)NCC(=O)NNC1=c2ccccc2=NC1=O` [MLS001075666] registered a concentration for a half-maximal effect (EC50) of 13.1 µM.

Turning to `O=C1N=C(O)C(C2=c3cc([N+](=O)[O-])ccc3=NC2=O)S1` (stereo unspecified) [MLS001163276], the EC50 is 13.2 µM.

As to `N#CC1C(=N)OC2=C(C(=O)CCC2)C1c1cc2c(cc1Cl)OCO2` (stereo unspecified) [MLS001183950], the concentration giving a half-maximal response (EC50) is over 300 µM.

For `Cc1cc(=O)[nH]c(N=NCc2ccc(O)c(O)c2)n1` [MLS001194906], it took 99.3 µM to reach a half-maximal effect (EC50).

`COc1ccc(OC)c(N2C(=O)C(=Cc3ccco3)C(=O)NC2=S)c1` [MLS001197216] registered an EC50 of 10.4 µM. Compared with the last compound, the EC50 is about 9.5-fold lower.

`Cc1ccccc1NN=C1C(=O)N(C)c2ccccc21` [MLS001203477]: the EC50 is over 300 µM.

Compound `O=[N+]([O-])c1cc/c(=N\c2ccccc2O)c2no[nH]c1-2` [MLS001206694] yielded a concentration giving a half-maximal response (EC50) of 24.4 µM.

As to `COc1cc2c(cc1C1C3=C(CC(C)(C)CC3=O)OC(=N)C1C#N)OCO2` (stereo unspecified) [MLS001208406], the EC50 is over 300 µM.

As for `O=C1C([N+](=O)[O-])=CC(Cl)=CC1/C=N/NC(=O)C(O)(c1ccccc1)c1ccccc1` (stereo unspecified) [N''''-[(E)-(3-chloro-5-nitro-6-oxocyclohexa-2,4-dien-1-ylidene)methyl]-2-hydroxy-2,2-diphenylacetohydrazide], the EC50 was over 300 µM.

In the case of `O=C(NN=Cc1c(O)n(-c2ccccc2)c(=S)[nH]c1=O)c1ccc(O)cc1` [N'-[(1Z)-(4,6-dioxo-1-phenyl-2-thioxohexahydropyrimidin-5-yl)methylene]-4-hydroxybenzohydrazide], the EC50 was over 300 µM.

For the compound `O=C(N/N=C/C1C=C(Cl)C=C([N+](=O)[O-])C1=O)c1ccc2c(c1)OCO2` (stereo unspecified) [N'-[(E)-(3-chloranyl-5-nitro-6-oxidanylidene-cyclohexa-2,4-dien-1-ylidene)methyl]-1,3-benzodioxole-5-carbohydrazide], it took 127 µM to reach a half-maximal effect (EC50).

For the compound `O=C1NC(=O)N(CCc2ccc(F)cc2)C(=O)C1=CNNC(=O)c1ccccc1` [N'-[(E)-[1-[2-(4-fluorophenyl)ethyl]-2,4,6-trioxo-1,3-diazinan-5-ylidene]methyl]benzohydrazide], the concentration for a half-maximal effect (EC50) is over 300 µM.

Consider `O=C1NC(=O)N(CCc2ccccc2)C(=O)C1=CNNC(=O)c1ccncc1` [N'-[(E)-[2,4,6-trioxo-1-(2-phenylethyl)-1,3-diazinan-5-ylidene]methyl]-4-pyridinecarbohydrazide], for which the EC50 was over 300 µM.

`C/N=c1\ccc2nc3ccccc3n(C)c-2c1` [N,10-dimethyl-2-phenazin-10-iumamine;perchlorate] registered an EC50 of 20.5 µM. This counts as double-digit micromolar.

Turning to `O=[N+]([O-])c1ccc(/N=N/c2ncc[nH]2)cc1` [N-(imidazol-2-ylideneamino)-4-nitroaniline], the EC50 was determined as 69.1 µM.

In the case of `COc1ccc(N=C(C(=C(Cl)C(Cl)Cl)[N+](=O)[O-])n2nnc3ccccc32)cc1` [N-[(1E)-1-(1-benzotriazolyl)-3,4,4-trichloro-2-nitrobuta-1,3-dienyl]-4-methoxyaniline], the concentration for a half-maximal effect (EC50) turned out to be 88.5 µM.

In turn, `COc1cccc(C2C3=C(CC(c4ccco4)CC3=O)OC(=N)C2C#N)c1OCc1ccc(F)cc1` (stereo unspecified) [SMR000021029] yielded a concentration for a half-maximal effect (EC50) of over 300 µM.

Turning to `CCN(CC)c1ccc(C=NC(C#N)C(=N)C#N)cc1` (stereo unspecified) [SMR000023871], the 50% effective concentration (EC50) is 281 µM.

The compound `COc1ccc(C2CC(c3ccc(Br)s3)=Nc3ncnn32)cc1OC` (stereo unspecified) [SMR000032927] yielded an EC50 of 7.82 µM.

In the case of `Cc1ccc(C2C3CN(C(C)C)CCC3=C(C#N)C(=N)C2(C#N)C#N)cc1` (stereo unspecified) [SMR000034220], the half-maximal effective concentration (EC50) amounted to 7.15 µM.

On to `Cc1cc(O)c(C(C)C)cc1Nc1csc(=O)[nH]1` [SMR000034713], for which the EC50 was determined as 38.9 µM.

`CC1=NC(c2ccccc2)C(C#N)(C#N)C(C#N)(C#N)C1` (stereo unspecified) [SMR000037705] registered an EC50 of 3.14 µM. This EC50 lies about 12-fold lower than the previous one.

`COc1cc(OC)c(C2C3=C(CC(C)(C)CC3=O)OC(=N)C2C#N)cc1OC` (stereo unspecified) [SMR000054706] showed an EC50 of over 300 µM.

Consider `C=c1[nH]n(-c2cccc(C(=O)O)c2)c(=O)c1=CC=Cc1ccco1` [SMR000113614], for which the EC50 is 19.9 µM. This counts as double-digit micromolar.

The compound `COc1ccc(C=C2CCCC(C(=O)C(F)(F)F)C2=O)cc1` (stereo unspecified) [SMR000142699] yielded a concentration giving a half-maximal response (EC50) of 36 µM.

As to `Oc1ccc2ccccc2c1CN=Nc1nnc(-c2ncc[nH]2)c2ccccc12` [SMR000151639], the midpoint of the response, the EC50, lay at 48.7 µM.

In the case of `CN1CCC2(CC1)C(C#N)C(=N)NC(=S)C2C#N` (stereo unspecified) [SMR000211480], the concentration for a half-maximal effect (EC50) worked out at 8.05 µM.

`O=C(c1ccccc1)c1[nH]n(-c2ccccc2)c2c(O)n(-c3ccccc3Cl)c(=O)c1-2` [SMR000212371] yielded a concentration for a half-maximal effect (EC50) of over 300 µM.

`COc1ccc(N=CCC(=O)c2ccc(C)cc2)cc1OC` [SMR000269732] had a 50% effective concentration (EC50) of over 300 µM.

`CCCCN1C(=O)/C(=C2/Sc3ccccc3N2C)SC1=Nc1nnc[nH]1` [SMR000282142]: the concentration giving a half-maximal response (EC50) worked out at 58.7 µM.

For the compound `Oc1ccc(CN=Nc2ncnc3nc[nH]c23)cc1` [SMR000320358], the EC50 was over 300 µM.

`COC(=O)c1ccc(-n2c(C)cc(CN=Nc3nc(C)cc(=O)[nH]3)c2C)cc1` [SMR000364461] yielded an EC50 of over 300 µM.

`O=C(N/N=C/C1C=C(Cl)C=C([N+](=O)[O-])C1=O)c1ccccc1NS(=O)(=O)c1cccs1` (stereo unspecified) [SMR000364876] yielded a concentration for a half-maximal effect (EC50) of 282 µM.

Compound `Cc1cc(C(=O)NN=CC2C=C(Cl)C=C([N+](=O)[O-])C2=O)[nH]n1` (stereo unspecified) [SMR000414694] had a concentration for a half-maximal effect (EC50) of over 300 µM.

Compound `Cn1c(=O)[nH]c(=O)c2c1nc(N=NC=C(Br)Cc1ccccc1)n2CCO` [SMR000436442] came in with a 50% effective concentration (EC50) of 206 µM.

Consider `COc1ccccc1N1C(=O)NC(=O)C(=Cc2c[nH]c3ccccc23)C1=O` [SMR000495900], for which the concentration for a half-maximal effect (EC50) is over 300 µM.

On to `Cc1cc(-c2ccccc2)nc(N=NCc2ccc(O)cc2O)n1` [SMR000513422], for which the EC50 is over 300 µM.

For `Cc1[nH]n(C(N)=S)c(=O)c1N=Nc1c(Cl)cc([N+](=O)[O-])cc1Cl` [SMR000514008], the EC50 was over 300 µM.

The compound `CC1(C)CC(=O)C2=C(C1)OC(=N)C(C#N)C2c1ccc2c(c1)OCO2` (stereo unspecified) [SMR000514966] returned an EC50 of over 300 µM.

Values taken from BindingDB's records for doi:10.7270/Q28G8J4C (Broad Institute, 2009).
